Laboratory results from the NIST ThermoML archive (doi:10.1016/j.jct.2006.10.012).

Columns and labels:
[1] = Molar enthalpy of transition or fusion; conditions: Crystal; Adiabatic calorimetry

Cc1ccc2nc(C)ccc2c1 [2,6-dimethylquinoline]
Conditions | Molar enthalpy of transition or fusion [kcal/mol]
[1] | 4.88

Liquid
Conditions | vapor or sublimation pressure [kPa]
336.99 K, Inclined piston gauge | 0.0375
339.98 K, Inclined piston gauge | 0.0461
349.98 K, Inclined piston gauge | 0.0877
359.98 K, Inclined piston gauge | 0.1589
369.98 K, Inclined piston gauge | 0.2786
379.97 K, Inclined piston gauge | 0.4711
389.97 K, Inclined piston gauge | 0.7716
399.97 K, Inclined piston gauge | 1.227
404.97 K, Inclined piston gauge | 1.532
409.97 K, Inclined piston gauge | 1.899
411.21 K, Twin ebulliometer | 2
414.96 K, Inclined piston gauge | 2.34
428.45 K, Twin ebulliometer | 3.987
436.24 K, Twin ebulliometer | 5.329
447.73 K, Twin ebulliometer | 7.992
456.33 K, Twin ebulliometer | 10.65
463.33 K, Twin ebulliometer | 13.33
470.57 K, Twin ebulliometer | 16.66
476.57 K, Twin ebulliometer | 19.93
484.49 K, Twin ebulliometer | 25.02
492.47 K, Twin ebulliometer | 31.19
500.45 K, Twin ebulliometer | 38.56
508.5 K, Twin ebulliometer | 47.36
516.61 K, Twin ebulliometer | 57.81
524.76 K, Twin ebulliometer | 70.1
532.96 K, Twin ebulliometer | 84.5
541.22 K, Twin ebulliometer | 101.3
549.51 K, Twin ebulliometer | 120.76
557.86 K, Twin ebulliometer | 143.19
566.25 K, Twin ebulliometer | 168.98
574.7 K, Twin ebulliometer | 198.44
583.18 K, Twin ebulliometer | 231.96
591.71 K, Twin ebulliometer | 269.97

Conditions | Critical temperature [K] | Triple point temperature [K] | mass density [kg/m3]
348.13 K, Liquid | – | – | 995.1
373.12 K, Liquid | – | – | 975.8
398.12 K, Liquid | – | – | 956.9
423.12 K, Liquid | – | – | 938.7
448.11 K, Liquid | – | – | 914.4
473.11 K, Liquid | – | – | 894
498.11 K, Liquid | – | – | 872.2
523.11 K, Liquid | – | – | 849.2
Crystal, Adiabatic calorimetry | – | 330.84 | –
Liquid, DTA | 786 | – | –
